Tested on: cholesterol concentration in the blood
Test: Blood cholesterol reduction in rats fed a cholesterol/sodium cholate diet
Format: in vivo
Settings: male rats, diet with 1% cholesterol and 0.25% sodium cholate for 3 days, control group = 0, normal group = 100
Description: A completely synthetic diet containing 1% of cholesterol, 0.25% of sodium cholate and 0.003%, 0.01%, 0.03% and 0.1% of the test compound is given to a group of 6 male rats having a body weight of about 50 g consecutively for 3 days, and the rats are fasted overnight. Then, the rats are decapitated and their blood collected to determine the cholesterol concentration in the blood. The concentration of cholesterol in the blood is measured with Technicon Autoanalyzer (Technicon Laboratory: Method File N-24a).
Each value shown in the Table is a relative value determined based on the supposition that the value of the control group (the cholesterol-administered group) is 0 and the value of the normal group (the non-cholesterol-administered group) is 100.

Question: How did the “% Inhibition” value (dose in diet 0.003%) turn out when `CC(C)C1CCC2=C(CCC3C(C)(C(=O)Nc4ccccc4)CCCC23C)C1` (stereo not shown) [Δ^8 -Dihydroabietanilide] was run?
Answer: Its value is 18%.

Question: What about the “% Inhibition” value (dose in diet 0.01%) of the same compound?
Answer: The value was 22%.

Question: What about the “% Inhibition” value (dose in diet 0.03%, * significant at 1% level) of the same compound?
Answer: Its value is 56%.

Question: And the “% Inhibition” value (dose in diet 0.1%, * significant at 1% level)?
Answer: The value was 93%.
